In patent publication US9023805B2, “Increasing cancer patient survival time by administration of dithio-containing compounds” (BioNumerik Pharmaceuticals, Inc., priority 2010, dated 2015):
Entries after “also recorded” stand apart in the source; their conditions may differ.

Legend:
[1] = tested on: coupled thioredoxin (TX)/thioredoxin reductase (TXR) system; experiment: NADPH oxidation, thioredoxin reductase + thioredoxin; assay type: biochemical, bovine; settings: for NADPH Oxidation, Thioredoxin Reductase + Thioredoxin: Disulfide 0.5 mM, minimum of triplicate assays
Protocol: (§1) The activity of TXR and TX was determined by following NADPH oxidation at 340 nm according to the previously reported method. See, Luthman, M., and Holmgren, A. Rat liver thioredoxin and thioredoxin reductase: purification and characterization. Biochemistry 21:6628-6633 (1982). A typical assay mixture contained TR buffer (50 mM potassium phosphate, pH 7.0, 1 mM EDTA), […] NADPH, 1.6 μg bovine TX, and one or more of the following: 4.8 μM TXR, 86 μM insulin, and one of the disulfides described herein. All disulfides were added to reactions as 10× solutions in TR buffer. The total volume of each reaction was 0.1 mL. Reactions were initiated by the addition of TX and were incubated at 25° C. for 40 min. The activity was calculated using a 4 min. linear portion of each reaction. Enzyme assays were carried out using either a Molecular Devices SpectraMaxPlus UV plate reader or a Varian Cary 100 UV-visible Spectrophotometer.
Data was then collected and plotted in Microsoft Excel. Error calculations, and graphical representations were performed in Microsoft Excel and Kaleidograph (ver. 3.5). Nonlinear data was graphically rendered using Kaleidograph. ANOVA and other statistical analyses were performed using SAS (ver. 8.2). Unless otherwise noted, significance level was set at 0.05, and error bars represent actual experimental standard deviation.

[2] = tested on: whole cells; experiment: Whole cell mediated disulfide reduction; assay type: cell-based; settings: mesna in combination with cisplatin
[3] = molecular target: T1, coupled glutaredoxin (GRX)/glutathione (GSH)/glutathione reductase (GR) system (Homo sapiens, UniProt P35754); experiment: NADPH oxidation, GR + GRX + GSH; assay type: biochemical; settings: in the presence of reduced glutathione and glutathione reductase
T1 sequence (P35754 2-106 limits assumed): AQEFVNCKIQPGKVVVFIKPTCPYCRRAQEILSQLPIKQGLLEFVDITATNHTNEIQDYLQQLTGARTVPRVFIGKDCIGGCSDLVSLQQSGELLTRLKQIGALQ
Protocol: (§2) The Formula (I) compound was utilized at a concentration of 0.5 mM.

[4] = molecular target: T2, glutathione reductase (GR) (Homo sapiens, UniProt P00390); experiment: NADPH oxidation, GR; assay type: biochemical
T2 sequence (P00390 44-522): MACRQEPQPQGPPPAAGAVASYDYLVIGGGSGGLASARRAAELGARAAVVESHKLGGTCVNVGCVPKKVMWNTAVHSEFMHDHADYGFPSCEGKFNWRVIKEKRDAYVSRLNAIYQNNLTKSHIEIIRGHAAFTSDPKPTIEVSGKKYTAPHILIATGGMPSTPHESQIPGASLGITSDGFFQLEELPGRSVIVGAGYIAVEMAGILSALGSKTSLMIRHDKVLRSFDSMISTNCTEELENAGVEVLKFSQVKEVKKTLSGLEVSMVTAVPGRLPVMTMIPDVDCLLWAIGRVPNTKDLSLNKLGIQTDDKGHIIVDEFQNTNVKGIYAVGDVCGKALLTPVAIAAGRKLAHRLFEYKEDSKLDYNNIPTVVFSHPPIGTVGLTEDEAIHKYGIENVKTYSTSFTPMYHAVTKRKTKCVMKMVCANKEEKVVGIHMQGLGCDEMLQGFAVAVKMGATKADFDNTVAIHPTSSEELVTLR
Protocol: as §2

[5] = molecular target: T3, Glutathione-S-Transferase (GST) (Homo sapiens, UniProt P09488); experiment: GST assay: conjugation of reduced glutathione to 1-chloro-2,4-dinitrobenzene (CDNB); assay type: biochemical; settings: read-out: Percent Inhibition
T3 construct: purchased
T3 sequence (P09488 2-218 limits assumed): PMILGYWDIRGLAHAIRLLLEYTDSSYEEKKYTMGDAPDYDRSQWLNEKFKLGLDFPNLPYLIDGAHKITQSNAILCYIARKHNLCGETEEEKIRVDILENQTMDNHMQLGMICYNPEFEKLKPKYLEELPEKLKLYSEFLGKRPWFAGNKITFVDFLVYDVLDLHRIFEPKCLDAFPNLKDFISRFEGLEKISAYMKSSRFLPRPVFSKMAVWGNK
Protocol: An in vitro assay for GST has been developed and reported. See, Meyer, D. J. and Ketterer, B., Purification of soluble human glutathione S-transferases. Methods Enzymol. 252:53-65 (1995). This assay monitors the conjugation of reduced glutathione to 1-chloro-2,4-dinitrobenzene (CDNB), as illustrated in Reaction Scheme II, below.
Reduced thiol forms a conjugate with CDNB (extinction coefficient=9600 M^−1 cm^−1), which is detected at 340 nm. […] A typical 1 mL assay was set up by mixing 500 μl NaHPO4 buffer (200 mM, pH 6.5), 20 μL GSH (50 mM), 20 μL CDNB (50 mM), and 458 μL sterile water. Reactions were incubated at 20° C. in the cuvette holder of the spectrophotometer for approximately 5 min. prior to initiating the assay with the addition of enzyme (ml−1 isotype of GST; activity >100 U/mg). The enzyme stock purchased from the vendor was diluted 1:100 in 200 mM NaHPO4 buffer (pH 6.5), and 2 μL of the diluted enzyme was added to initiate the reaction. The final amount of enzyme added to the assay was typically 0.002 U. Assays were run at 20° C. in 1 mL quartz cuvettes (Hellma Scientific). Slopes were measured in the linear range of the assay (i.e., typically between 5 to 10 min.). […] Final reaction volumes were fixed at 1 mL by adjusting the amount of water added.
a. […]
Raw data was obtained on a Cary 100 spectrophotometer. […] No absorbance values were collected during the process of enzyme addition. […] It was during this time that reaction rates (i.e., slopes of change in absorbance with time) were measured using the Cary 100 software. […] Absorbance and time values during the end phase of the reaction were not used in slope calculations because the reaction was effectively over at this point as the reaction no longer followed the classical Michaelis-Menton model for enzyme kinetics. Completion of the reaction on the Cary software could be detected visually by overlaying a straight line beginning at the addition of enzyme and extending past the end phase of the assay curve. […]

[6] = tested on: patients with advanced non-small cell lung carcinoma (NSCLC), including the adenocarcinoma sub-type; experiment: Japan Phase III Clinical Trial; assay type: in vivo, human
Protocol: (§3) Darbepoetin alfa (200 μg; subcutaneous administration) was administered on day one of the chemotherapy cycle and pegfilgrastim (6 mg subcutaneous administration) was administered on day two of the chemotherapy cycle if the patient's hemoglobin levels were ≦11 g/dL. The aforementioned chemotherapy cycle was repeated every two weeks, for up to a total of six cycles.
Patients admitted into the trial included those patients without previous treatment (excluding surgical treatment, administration of Picibanil into the serous membrane, irradiation of 30% or less hematopoietic bone, or oral chemotherapeutic agents within 3 months of entry in the trial).
The Japan Phase III Clinical Trial was conducted as a double-blind study because peripheral neuropathy is diagnosed based on subjective symptoms evaluated through clinical interviews, lab tests, and the like. Accordingly, evaluations by both physicians and patients are highly important. […] A placebo was used as control since there is no established therapy or drug for preventing peripheral neuropathy. Because the severity of peripheral neuropathy is evaluated based on patient's reports (i.e., subjective symptoms), the Peripheral Neuropathy Questionnaire (PNQ©) was used in primary evaluation. CIPN-20 and NCI-CTC were used in secondary evaluation. The incidence and severity of adverse reactions, time to their onset, etc. and the like, were compared between patients treated with Tavocept™ and those given a placebo using the aforementioned methods.

[7] = tested on: patients with advanced, Stage IIIB/IV, non-small cell lung carcinoma (NSCLC), including the adenocarcinoma sub-type; experiment: U.S. Phase II NSCLC Clinical Trial; assay type: in vivo, human
Protocol: as §3

[8] = tested on: coupled thioredoxin (TX)/thioredoxin reductase (TXR) system; experiment: TX/TXR catalyzed reduction of the insulin A-B chain disulfide; assay type: biochemical, bovine
Protocol: as §1

[9] = Tavocept™ and chemotherapy vs chemotherapy and placebo
[10] = Grade 3 and Grade 4 treatment-related adverse events, Tavocept™ arm versus non-Tavocept™ arm, FIG. 15

## NC(CCSSCCS(=O)(=O)O)C(=O)O (centres unmarked) [BNP7768]
[1]
  substrate (alternative substrate inhibitor) for thioredoxin / the coupled thioredoxin/thioredoxin reductase/NADPH system: substrates
  NADPH Oxidation, Thioredoxin Reductase + Thioredoxin: 8.6 ± 0.06 nmol/min/mL

## N[C@@H](CSSCCS(=O)(=O)O)C(=O)NCC(=O)O [BNP7776]
[1]
  substrate (alternative substrate inhibitor) for thioredoxin / the coupled thioredoxin/thioredoxin reductase/NADPH system: substrates
  NADPH Oxidation, Thioredoxin Reductase + Thioredoxin: 15.8 ± 0.3 nmol/min/mL

## O=S(=O)([O-])CCS.[Na+] [mesna, 2-mercapto ethane sulfonate sodium]
[2]
  reduction of hydroxyethyldisulfide (GRX substrate) by whole cells: enhanced
  reduction of α-lipoic acid (TX/TXR substrate) by whole cells: enhanced

## O=S(=O)([O-])CCSSCCS(=O)(=O)[O-].[Na+].[Na+] [Tavocept™, disodium 2,2′-dithio-bis-ethane sulfonate]
[3]
  substrate-like / alternative substrate inhibitor activity with glutaredoxin (coupled GRX/GSH/GR system): substrate-like activity
[4]
  substrate for glutathione reductase: not a substrate
[5]
  inhibition at 1100 µM: 5.6%
  inhibition at 3300 µM: 39%
  inhibition at 10000 µM: 66.4%
[6]; [9]
  chemotherapy-induced kidney damage: medically-important reductions
  chemotherapy-induced vomiting/emesis: medically-important reductions
[6]; Tavocept™ arm, FIG. 7
  patients with Grade 3 (severe) decrease in red blood cell: 1 patients
[6]; Tavocept™ arm, FIG. 8 "Doctor"
  Response Rate, as measured by physicians: 41.9%
[6]; paclitaxel/Tavocept™/cisplatin vs paclitaxel/saline placebo/cisplatin, FIG. 5, GEE P-Value 0.1565 (FIG. 6)
  reduction in severe (Grade D or E) peripheral neuropathy (PNQ): ~50%
[6]; vs placebo regimen, p=0.0029
  anorexia: reductions
[6]; vs placebo regimen, p=0.0163
  fatigue: reductions
[6]; vs placebo regimen, p=0.0240
  nausea/vomiting: reductions
[6]; vs placebo regimen, p=0.0859
  diarrhea: reductions
[6]; vs placebo regimen, p=0.1108
  insomnia: reductions
[6]; vs placebo regimen, p=0.1114
  constipation: reductions
[1]
  oxidation of reduced thioredoxin to oxidized thioredoxin: drives the oxidation
  substrate (alternative substrate inhibitor) for thioredoxin / the coupled thioredoxin/thioredoxin reductase/NADPH system: substrate; also recorded: most likely a substrate for TX
  NADPH Oxidation, Thioredoxin Reductase + Thioredoxin: 13.1 ± 0.2 nmol/min/mL
[1]; FIG. 17
  NADPH oxidation by TXR in the presence of TX: concentration-dependent increase
[1]; read-out: Km as substrate for the coupled thioredoxin/thioredoxin reductase system
  Km: 72 µM
[7]; FIG. 14
  hazard ratio, adenocarcinoma: 0.601
[7]; [10]
  reduction in dehydration: 50%
  reduction in hypomagnesaemia: 100%
  reduction in nausea: 38.5%
  reduction in vomiting: 71.5%
[7]; NSCLC, FIG. 12
  hazard ratio: 0.750
[7]; Tavocept™ arm versus non-Tavocept™ arm, FIG. 14
  increase in patient survival, adenocarcinoma: 6.54 month
[7]; Tavocept™ arm versus non-Tavocept™ arm, FIG. 14, listed as Tavocept
  increase in patient survival, adenocarcinoma: ~6.5 month
[8]
  inhibition of TX/TXR catalyzed reduction of the insulin A-B chain disulfide bond: inhibits
[8]; read-out: Km for inhibition of thioredoxin/thioredoxin reductase catalyzed reduction of the insulin A-B chain disulfide
  Km: 3600 µM

## NC(CSSCCS(=O)(=O)O)C(=O)O (centres unmarked) [BNP7766]
[1]
  substrate (alternative substrate inhibitor) for thioredoxin / the coupled thioredoxin/thioredoxin reductase/NADPH system: substrates
  NADPH Oxidation, Thioredoxin Reductase + Thioredoxin: 14.4 ± 0.2 nmol/min/mL

## N[C@@H](CCC(=O)N[C@@H](CSSCCS(=O)(=O)O)C(=O)NCC(=O)O)C(=O)O [BNP7772]
[4]
  substrate for glutathione reductase: alternative substrate inhibitor
[1]
  substrate (alternative substrate inhibitor) for thioredoxin / the coupled thioredoxin/thioredoxin reductase/NADPH system: substrates
  NADPH Oxidation, Thioredoxin Reductase + Thioredoxin: 14.1 ± 0.1 nmol/min/mL

## NC(CCC(=O)NC(CSSCCS(=O)(=O)O)C(=O)O)C(=O)O (centres unmarked) [BNP7774]
[1]
  substrate (alternative substrate inhibitor) for thioredoxin / the coupled thioredoxin/thioredoxin reductase/NADPH system: substrates
  NADPH Oxidation, Thioredoxin Reductase + Thioredoxin: 9.6 ± 0.2 nmol/min/mL
